According to US10947271B2, “Antibacterial agents” (THE UNIVERSITY OF QUEENSLAND, priority 2014, dated 2021):

Experiments:
[1] = test system: Streptococcus pneumoniae MDR ATCC 700677; assay: MIC assay, S. pneumoniae MDR ATCC 700677; assay type: cell-based; conditions: 24 h incubation, visual reading
Outline: (§1)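 Overnight MHB cultures at 37° C were diluted 40-fold and grown 2-3 hrs to mid-log, then added at 5×10e5 CFU/mL to twofold compound dilutions (8 to 0.003 μg/ml). Plates were incubated 24 h at 37° C and MIC scored by eye.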

[2] = test system: MRSA (Strain ATCC 43300); assay: Murine thigh infection model (MRSA); assay type: in vivo, Staphylococcus aureus; conditions: neutropenic CD1 mice
Protocol: Summary: Adult (8 week old) female CD1 mice were made neutropenic by two injections of cyclophosphamide 4 days and 1 day prior to infection. An inoculum of 10^5 cfu MRSA (Strain ATCC 43300) was injected intramuscularly into both left and right thighs of all mice. […] After an additional two hours, a 50 μL sample of blood was obtained from the tail bleed to analyse for presence of antibiotic compound. […] Thighs were then removed, weighed and homogenised in a fixed volume of saline. The homogenate solution was filtered, diluted and seeded onto agar plates, which were incubated overnight at 37° C. Colony counts were used to establish the cfu in the thigh homogenates, the cfu/thigh, and the cfu/g of thigh.
Compound preparation: Cyclophosphamide monohydrate (Sigma) was dissolved in sterile saline to a concentration of 30 mg/mL. Likewise, vancomycin (Sigma) and MCC compounds were also dissolved in sterile saline to a final concentration of 60 mg/mL and 18.5 mg/mL respectively. All compounds were prepared in low binding Eppendorf tubes and kept at −20° C. until used.
In vivo experimental assay: Eight week old female outbred CD1 mice (UQBR-AIBN) were rendered neutropenic by injecting two doses of cyclophosphamide intraperitoneally 4 days (150 mg/kg) and 1 day (100 mg/kg) prior to experimental infection. The infection model using MRSA was established by intramuscular injection of 50 μL of early-log-phase bacterial MRSA suspension (around 2×10^6 cfu/mL) in saline into both thigh muscles. […] Untreated animals received equivalent volume of saline (Baxter). The mice were monitored for signs of normal behaviour (i.e. grooming, eating, drinking, sleeping, and alertness) during and following dosing. Two hours after saline/antibiotic treatment, 0.05 mL of blood was collected by tail incision. 24 hours after MRSA infection, mice were euthanized and blood collected from the heart by cardiac puncture (saline group) or by tail incision (Vancomycin and MCC compound treated groups) as outlined in FIG. 1. For each mouse, both thighs were collected aseptically by cutting the leg at the hip and knee, placed in 10 mL of cold sterile saline and the individual weight of each thigh recorded.
Preparation of injectable MRSA solution: An MRSA subculture bacterial isolate (ATCC43300) was taken from the storage at −80° C. and freshly seeded on agar plates for overnight (O/N) growth. From the O/N culture preparation, a single colony was diluted into 10-12 mL of Mueller Hinton broth (MHB) and incubated O/N at 37° C. A log-phase subculture was obtained by adding 100 μL of O/N subculture in 10 mL MHB and incubated for a further 2-3 hours. Finally, the OD600 value of the bacterial suspension was determined and the colony forming units per millilitre (cfu/mL) extrapolated. A full dilution of the bacterial cell suspension in saline was achieved by washing (3220×g for 10 min) and the OD600 in saline determined. The suspension was then diluted out accordingly in order to achieve a 2×10^6 cfu/mL solution (10^5 cfu in 50 μL/thigh).
Thus, 10 μL of the injectable MRSA suspension was diluted down to 10-1000 fold, each dilution plated out onto agar plates and incubated at 37° C. for 24 hours.
Thigh homogenates and CFU determination: Thighs were homogenized at 20,000 rpm for 15 seconds using a Polytron MR2500E using a […] probe (all Kinematica).

[3] = test system: Enterococcus faecium MDR Van A ATCC 51559; assay: MIC assay, E. faecium MDR Van A ATCC 51559; assay type: cell-based; conditions: 24 h incubation, visual reading
Outline: as §1

[4] = test system: Staphylococcus aureus MRSA ATCC 43300; assay: MIC assay, S. aureus MRSA ATCC 43300; assay type: cell-based; conditions: 24 h incubation, visual reading
Outline: as §1

[5] = single subcutaneous dose 25 mg/kg
[6] = single subcutaneous dose 10 mg/kg

## CCCCCCCCCCC(=O)N[C@@H](CCCCN)C(=O)N[C@@H](CCCCN)C(=O)NCCCNC(=O)[C@H]1NC(=O)[C@H]2NC(=O)[C@H](NC(=O)[C@@H]3NC(=O)[C@H](CC(N)=O)NC(=O)[C@H](NC(=O)[C@@H](CC(C)C)NC)[C@H](O)c4ccc(c(Cl)c4)Oc4cc3cc(c4O[C@@H]3O[C@H](CO)[C@@H](O)[C@H](O)[C@H]3O[C@H]3C[C@](C)(N)[C@H](O)[C@H](C)O3)Oc3ccc(cc3Cl)[C@H]2O)c2ccc(O)c(c2)-c2c(O)cc(O)cc21 [MCC_000344]
[1]
  Minimum Inhibitory Concentration (MIC) S. pneumoniae ATCC 700677: xxxx (xxxx = 0.01-<0.1)
[2]; [5]
  Average Reduction log Δcfu MRSA/thigh after 26 h: xxx (xxx = 4-6)
[3]
  Minimum Inhibitory Concentration (MIC) E. faecium ATCC51559: xx (xx = 1-4)
[4]
  Minimum Inhibitory Concentration (MIC) Staph. aureus ATCC43300: xxxx (xxxx = 0.01-<0.1)

## CNC(CC(C)C)C(=O)NC1C(=O)NC(CC(N)=O)C(=O)NC2C(=O)NC3C(=O)NC(C(=O)NC(C(=O)NCCCNC(=O)C(CCCCN)NC(=O)C(CCCCN)NC(=O)CC4CCCCC4)c4cc(O)cc(O)c4-c4cc3ccc4O)C(O)c3ccc(c(Cl)c3)Oc3cc2cc(c3OC2OC(CO)C(O)C(O)C2OC2CC(C)(N)C(O)C(C)O2)Oc2ccc(cc2Cl)C1O (centres unmarked) [MCC_005363]
[1]
  Minimum Inhibitory Concentration (MIC) S. pneumoniae ATCC 700677: xxx (xxx = 0.1-<1)
[2]; single subcutaneous dose 50 mg/kg
  Average Reduction log Δcfu MRSA/thigh after 26 h: xxx (xxx = 4-6)
[3]
  Minimum Inhibitory Concentration (MIC) E. faecium ATCC51559: x (x = >4)
[4]
  Minimum Inhibitory Concentration (MIC) Staph. aureus ATCC43300: xxx (xxx = 0.1-<1)

## CCCCCCCCCC(=O)N[C@@H](CCCCN)C(=O)N[C@@H](CCCCN)C(=O)N1CCC(CNC(=O)[C@H]2NC(=O)[C@H]3NC(=O)[C@H](NC(=O)[C@@H]4NC(=O)[C@H](CC(N)=O)NC(=O)[C@H](NC(=O)[C@@H](CC(C)C)NC)[C@H](O)c5ccc(c(Cl)c5)Oc5cc4cc(c5O[C@@H]4O[C@H](CO)[C@@H](O)[C@H](O)[C@H]4O[C@H]4C[C@](C)(N)[C@H](O)[C@H](C)O4)Oc4ccc(cc4Cl)[C@H]3O)c3ccc(O)c(c3)-c3c(O)cc(O)cc32)CC1 [MCC_005489]
[1]
  Minimum Inhibitory Concentration (MIC) S. pneumoniae ATCC 700677: xxxx (xxxx = 0.01-<0.1)
[2]; [6]
  Average Reduction log Δcfu MRSA/thigh after 26 h: xxx (xxx = 4-6)
[3]
  Minimum Inhibitory Concentration (MIC) E. faecium ATCC51559: xx (xx = 1-4)
[4]
  Minimum Inhibitory Concentration (MIC) Staph. aureus ATCC43300: xxxx (xxxx = 0.01-<0.1)

## CN[C@H](CC(C)C)C(=O)N[C@H]1C(=O)N[C@@H](CC(N)=O)C(=O)N[C@H]2C(=O)N[C@H]3C(=O)N[C@H](C(=O)N[C@H](C(=O)NCCCC[C@H](NC(=O)[C@H](CCCCN(C)C)NC(=O)c4ccc(Oc5ccccc5)cc4)C(=O)O)c4cc(O)cc(O)c4-c4cc3ccc4O)[C@H](O)c3ccc(c(Cl)c3)Oc3cc2cc(c3O[C@@H]2O[C@H](CO)[C@@H](O)[C@H](O)[C@H]2O[C@H]2C[C@](C)(N)[C@H](O)[C@H](C)O2)Oc2ccc(cc2Cl)[C@H]1O [MCC_007221]
[1]
  Minimum Inhibitory Concentration (MIC) S. pneumoniae ATCC 700677: xx (xx = 1-4)
[2]; [6]
  Average Reduction log Δcfu MRSA/thigh after 26 h: x (x = 0-2)
[3]
  Minimum Inhibitory Concentration (MIC) E. faecium ATCC51559: x (x = >4)
[4]
  Minimum Inhibitory Concentration (MIC) Staph. aureus ATCC43300: xxx (xxx = 0.1-<1)

## CNC(CC(C)C)C(=O)NC1C(=O)NC(CC(N)=O)C(=O)NC2C(=O)NC3C(=O)NC(C(=O)NC(C(=O)NCCCNC(=O)C(CCCCN)NC(=O)C(CCCCN)NC(=O)c4ccc(Oc5ccccc5)cc4)c4cc(O)cc(O)c4-c4cc3ccc4O)C(O)c3ccc(c(Cl)c3)Oc3cc2cc(c3OC2OC(CO)C(O)C(O)C2OC2CC(C)(N)C(O)C(C)O2)Oc2ccc(cc2Cl)C1O (centres unmarked) [MCC_005364]
[1]
  Minimum Inhibitory Concentration (MIC) S. pneumoniae ATCC 700677: xxxx (xxxx = 0.01-<0.1)
[2]; [6]
  Average Reduction log Δcfu MRSA/thigh after 26 h: xx (xx = 2-4)
[3]
  Minimum Inhibitory Concentration (MIC) E. faecium ATCC51559: xx (xx = 1-4)
[4]
  Minimum Inhibitory Concentration (MIC) Staph. aureus ATCC43300: xxxxx (xxxxx = <0.01)

## CCCCCCCCCC(=O)N[C@@H](CCCCN)C(=O)NCCNC(=O)[C@H]1NC(=O)[C@H]2NC(=O)[C@H](NC(=O)[C@@H]3NC(=O)[C@H](CC(N)=O)NC(=O)[C@H](NC(=O)[C@@H](CC(C)C)NC)[C@H](O)c4ccc(c(Cl)c4)Oc4cc3cc(c4O[C@@H]3O[C@H](CO)[C@@H](O)[C@H](O)[C@H]3O[C@H]3C[C@](C)(N)[C@H](O)[C@H](C)O3)Oc3ccc(cc3Cl)[C@H]2O)c2ccc(O)c(c2)-c2c(O)cc(O)cc21 [MCC_005162]
[1]
  Minimum Inhibitory Concentration (MIC) S. pneumoniae ATCC 700677: xxxx (xxxx = 0.01-<0.1)
[2]; [6]
  Average Reduction log Δcfu MRSA/thigh after 26 h: xxx (xxx = 4-6)
[3]
  Minimum Inhibitory Concentration (MIC) E. faecium ATCC51559: xx (xx = 1-4)
[4]
  Minimum Inhibitory Concentration (MIC) Staph. aureus ATCC43300: xxxx (xxxx = 0.01-<0.1)

## CCCCCCCCCCC(=O)N[C@@H](CCCCN)C(=O)N[C@@H](CCCCN)C(=O)N[C@@H](CCCCNC(=O)[C@H]1NC(=O)[C@H]2NC(=O)[C@H](NC(=O)[C@@H]3NC(=O)[C@H](CC(N)=O)NC(=O)[C@H](NC(=O)[C@@H](CC(C)C)NC)[C@H](O)c4ccc(c(Cl)c4)Oc4cc3cc(c4O[C@@H]3O[C@H](CO)[C@@H](O)[C@H](O)[C@H]3O[C@H]3C[C@](C)(N)[C@H](O)[C@H](C)O3)Oc3ccc(cc3Cl)[C@H]2O)c2ccc(O)c(c2)-c2c(O)cc(O)cc21)C(=O)O [MCC_000174]
[1]
  Minimum Inhibitory Concentration (MIC) S. pneumoniae ATCC 700677: xxxx (xxxx = 0.01-<0.1)
[2]; single subcutaneous dose 5 mg/kg
  Average Reduction log Δcfu MRSA/thigh after 26 h: xxx (xxx = 4-6)
[2]; [6]
  Average Reduction log Δcfu MRSA/thigh after 26 h: xxx (xxx = 4-6)
[2]; [5]
  Average Reduction log Δcfu MRSA/thigh after 26 h: xxx (xxx = 4-6)
[3]
  Minimum Inhibitory Concentration (MIC) E. faecium ATCC51559: x (x = >4)
[4]
  Minimum Inhibitory Concentration (MIC) Staph. aureus ATCC43300: xxxx (xxxx = 0.01-<0.1)

## CCCCCCCCCC(=O)N[C@@H](CCCCN)C(=O)N[C@@H](CCCCN)C(=O)N[C@@H](CCCCN)C(=O)NCCCNC(=O)[C@H]1NC(=O)[C@H]2NC(=O)[C@H](NC(=O)[C@@H]3NC(=O)[C@H](CC(N)=O)NC(=O)[C@H](NC(=O)[C@@H](CC(C)C)NC)[C@H](O)c4ccc(c(Cl)c4)Oc4cc3cc(c4O[C@@H]3O[C@H](CO)[C@@H](O)[C@H](O)[C@H]3O[C@H]3C[C@](C)(N)[C@H](O)[C@H](C)O3)Oc3ccc(cc3Cl)[C@H]2O)c2ccc(O)c(c2)-c2c(O)cc(O)cc21 [MCC_005201]
[1]
  Minimum Inhibitory Concentration (MIC) S. pneumoniae ATCC 700677: xxxx (xxxx = 0.01-<0.1)
[2]; [6]
  Average Reduction log Δcfu MRSA/thigh after 26 h: xx (xx = 2-4)
[3]
  Minimum Inhibitory Concentration (MIC) E. faecium ATCC51559: xx (xx = 1-4)
[4]
  Minimum Inhibitory Concentration (MIC) Staph. aureus ATCC43300: xxxx (xxxx = 0.01-<0.1)

## CNC(CC(C)C)C(=O)NC1C(=O)NC(CC(N)=O)C(=O)NC2C(=O)NC3C(=O)NC(C(=O)NC(C(=O)NCCCNC(=O)C(CCCCN)NC(=O)c4ccc(Oc5ccccc5)cc4)c4cc(O)cc(O)c4-c4cc3ccc4O)C(O)c3ccc(c(Cl)c3)Oc3cc2cc(c3OC2OC(CO)C(O)C(O)C2OC2CC(C)(N)C(O)C(C)O2)Oc2ccc(cc2Cl)C1O (centres unmarked) [MCC_007407]
[1]
  Minimum Inhibitory Concentration (MIC) S. pneumoniae ATCC 700677: xxxx (xxxx = 0.01-<0.1)
[2]; [6]
  Average Reduction log Δcfu MRSA/thigh after 26 h: xxx (xxx = 4-6)
[3]
  Minimum Inhibitory Concentration (MIC) E. faecium ATCC51559: x (x = >4)
[4]
  Minimum Inhibitory Concentration (MIC) Staph. aureus ATCC43300: xxxx (xxxx = 0.01-<0.1)
